From patent US20220241416A1, “METHODS FOR THE IDENTIFICATION OF SARM1 NADASE ACTIVITY INHIBITORS AND USES THEREOF” (Bar Ilan University, priority 2021, published 2022)
“Also recorded” adds a separate entry of the source. Where two headings read alike, the source gives them in different places.

Experiments:
hSARM1 [1] = biological target: T1, hSARM1 (Homo sapiens, UniProt Q6SZW1); assay: Determination of IC50 and mode of inhibition of hSARM1 NADase (ADPR by HPLC); format: biochemical; conditions: for mode of inhibition, Lineweaver-Burk plot: 10 μM inhibitor, NAD+ 1-160 μM; for IC50: 50 μM NAD+, 10 min pre-incubation at room temperature, 10 min at 37° C.
T1 construct: hSARM1w.t; (26ERL . . . GPT724) that was not mutated in E642, was also expressed and isolated; 6xHis (N); TEV cleavage site (N); made in house; host or cells: HEK293F suspension cells
T1 sequence (Q6SZW1 with tags, fused parts or gaps): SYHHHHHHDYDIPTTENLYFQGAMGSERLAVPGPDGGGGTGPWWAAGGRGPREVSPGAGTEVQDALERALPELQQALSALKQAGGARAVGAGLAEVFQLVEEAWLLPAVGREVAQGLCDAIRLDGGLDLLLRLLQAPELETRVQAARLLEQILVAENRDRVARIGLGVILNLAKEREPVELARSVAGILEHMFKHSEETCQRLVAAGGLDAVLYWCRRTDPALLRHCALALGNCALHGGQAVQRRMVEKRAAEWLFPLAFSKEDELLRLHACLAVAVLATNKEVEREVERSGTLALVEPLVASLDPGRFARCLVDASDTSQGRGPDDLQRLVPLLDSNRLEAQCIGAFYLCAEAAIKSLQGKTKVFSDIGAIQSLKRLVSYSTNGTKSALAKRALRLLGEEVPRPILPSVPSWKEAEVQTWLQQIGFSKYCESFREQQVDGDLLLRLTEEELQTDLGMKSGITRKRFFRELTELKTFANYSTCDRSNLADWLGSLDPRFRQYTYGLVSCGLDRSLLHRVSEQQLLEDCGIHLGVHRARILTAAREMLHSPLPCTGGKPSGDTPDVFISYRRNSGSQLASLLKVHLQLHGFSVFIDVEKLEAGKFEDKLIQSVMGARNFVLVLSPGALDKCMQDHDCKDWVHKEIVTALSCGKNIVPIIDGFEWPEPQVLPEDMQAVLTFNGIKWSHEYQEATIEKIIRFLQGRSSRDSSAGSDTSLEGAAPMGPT

zfSARM1 = biological target: T2, zfSARM1 (Danio rerio, UniProt F1QWA8); assay: Effect of hSARM1 inhibitors on zfSARM1 NADase activity (ADPR by HPLC); format: biochemical, Zebrafish
T2 sequence (F1QWA8 1-713): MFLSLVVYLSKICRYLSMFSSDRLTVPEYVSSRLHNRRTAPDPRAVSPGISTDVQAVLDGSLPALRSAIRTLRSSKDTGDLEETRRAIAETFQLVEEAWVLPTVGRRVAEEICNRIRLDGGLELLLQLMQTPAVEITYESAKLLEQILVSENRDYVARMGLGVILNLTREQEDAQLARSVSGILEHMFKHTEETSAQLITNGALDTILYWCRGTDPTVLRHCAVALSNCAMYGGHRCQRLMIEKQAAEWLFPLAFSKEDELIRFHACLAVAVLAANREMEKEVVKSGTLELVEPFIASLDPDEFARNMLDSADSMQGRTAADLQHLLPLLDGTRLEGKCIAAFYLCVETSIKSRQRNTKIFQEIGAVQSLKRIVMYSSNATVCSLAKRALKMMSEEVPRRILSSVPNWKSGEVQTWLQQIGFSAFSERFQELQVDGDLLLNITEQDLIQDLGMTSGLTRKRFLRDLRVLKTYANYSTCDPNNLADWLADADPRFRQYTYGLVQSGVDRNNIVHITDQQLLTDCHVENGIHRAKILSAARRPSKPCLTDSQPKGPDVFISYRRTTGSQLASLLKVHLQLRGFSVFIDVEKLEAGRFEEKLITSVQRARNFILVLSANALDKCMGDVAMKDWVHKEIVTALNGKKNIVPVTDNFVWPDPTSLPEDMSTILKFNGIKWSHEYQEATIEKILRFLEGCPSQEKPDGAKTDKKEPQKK

Mouse DRG explants [2] = assay: Axon degeneration assay after axotomy, DRG explants; format: cell-based; conditions: 10-30 μM compound; 16 hours post axotomy
Procedure: (§1) FIG. 15A. Mouse DRG explants cultures were grown in NGF containing media for 96 hours. Right before axotomy, the media was exchanged and supplemented with either 10-30 μM of the hSARM1 inhibitory compounds or just with 0.2% DMSO for control, and then the culture were left to grow for additional 16 hours. The white dashed lines indicate cut site (axotomy). To evaluate toxic side effects, we applied […] of the inhibitory compounds without performing axotomy. The axons were stained with anti-Tuj1 antibody.
(§2) Dorsal root ganglion (DRG) were dissected from E13.5 wild-type mice and plated in 8-wells chamber coated with 10 μg/ml poly-d-lysin (Sigma-Aldrich, St Louis. Mo.) and 10 μg/ml mouse Laminin (Sigma-Aldrich). The DRGs were grown in Neurobasal™-A (NB, GIBCO, 10888022) medium supplemented with B27 (Gibco, Waltham, Mass.), penicillin-streptomycin solution, glutamine (Biological Industries, Beit HaEmek, Israel), and NGF (Alomone Labs. Jerusalem, Israel) in a humidified incubator (37° C. 5% CO2).
(§3) After 96 h, the medium was exchanged to NGF containing medium, supplemented with 10-30 μM SARM1 inhibitory compounds, which were first dissolved in DMSO to a 10 mM stock concentration. For axotomy, axons were cut using a needle, in close proximity to the cell body and were examined 16 hours post-axotomy. […]
(§4) Images were binarized such that pixels corresponding to axons converted to white, while all other regions converted to black. The images were analyzed using Image) software with algorithm that distinguishes fragmented from intact axonal segments. To each image we calculated the degeneration index (DI) defined as the ratio of fragmented to intact axon number. To quantify axonal protection, we normalized the DI values to DMSO with axotomy, and then we divide one by each calculated value. […] To quantify axonal degeneration caused by the compounds' toxicity, we normalized the DI values to DMSO control without axotomy and generated a degeneration index. From each explant, 4 nonoverlapping frames were randomly collected and quantified per experimental condition.

Mouse DRG explants [3] = assay: Toxic side effects on DRG explants without axotomy; format: cell-based; conditions: 10-30 μM compound; no axotomy
Procedure: as §1, §2, §3, §4

[4] = biological target: hSARM1RR216-7EE/FP255-6RR (human) (UniProt Q6SZW1); assay: cell-based or functional assay
hSARM1 FP255-6RR (human) = hSARM1 FP255-6RR (human) (UniProt Q6SZW1); assay: cell-based or functional assay
hSARM1 [5] = biological target: T1, hSARM1; assay: HPLC analysis of time dependent NAD+ consumption by hSARM1; format: biochemical; conditions: 50 μM NAD+
Procedure: Purified hSARM1w.t. was first diluted to 800 nM in 25 mM HEPES pH 7.5, 150 mM NaCl, and then mixed in 37° C. with different concentrations of NAD+(in the same buffer) in a 1:1 v/v ratio and incubated for 0, 5 and 30 min. 1:100 (v/v). BSA (NEB Inc. 20 mg/ml) was included, and reactions were stopped by heating at 95° C. for 2 minutes. Where specified, NMN (Sigma-Aldrich-N3501) was added in different concentrations. For control, NAD+ consumption was compared to a commercially available porcine brain NADase 0.025 units/ml (Sigma-Aldrich-N9879).
HPLC measurements were performed using a Merck Hitachi Elite LaChrom HPLC system equipped with an autosampler, UV detector and quaternary pump. HPLC traces were monitored at 260 nm and integrated using EZChrom Elite software. 10 μL of each sample were injected onto a Waters Spherisorb ODS1 C18 RP HPLC Column (5 μm particle size, 4.6 mm×150 mm ID). HPLC solvents are: A: 100% methanol; B: 120 mM sodium phosphate pH 6.0; C double-distilled water (DDW). The column was pre-equilibrated with B:C mixture ratio of 80:20. Chromatography was performed at room temperature with a flow rate of 1.5 ml/min. Each analysis cycle was 12 min long as follows (A:B:C, v/v): fixed 0:80:20 0-4 min; gradient to 20:80:0 4-6 min; fixed 20:80:0 from 6-9 min. gradient to 0:80:20 from 9-10 min; fixed 0:80:20 from 10-12 min. The NAD+ hydrolysis product ADPR was eluted at the isocratic stage of the chromatography while NAD+ elutes in the methanol gradient stage.

IC50 (hSARM1 [1]) [µM] | Compound | mode of inhibition, Lineweaver-Burk plot (hSARM1 [1]) | protection of axons after axotomy (Mouse DRG explants [2]) | toxic effect on axons without axotomy (Mouse DRG explants [3]) | also measured
≤ 10 | CCOC(=O)Cn1sc2nc(C)cc(C)c2c1=O [TK142] | competitive pattern | only mild protection | not toxic at all | effect on zfSARM1 NADase activity (words) (zfSARM1): concentration-dependent inhibitory effects; effect on zfSARM1 NADase activity (words) (zfSARM1; listed as TK 142): specific inhibitory effect
≤ 10 | O=C(c1ccccn1)N1C[C@H]2OC(=O)N(CCCN3CCOCC3)[C@H]2C1 [TK174] |  | did not protect axons after axotomy | not toxic | 
 | hSARM1RR216-7EE/FP255-6RR (from UniProt Q6SZW1 26-724) (enzyme) |  |  |  | cell death 24 hours after transfection (resazurin fluorescence assay, HEK-293T cells) [4]: 50%
 | hSARM1 FP255-6RR (from UniProt Q6SZW1 26-724) (enzyme) |  |  |  | cell death 24 hours after transfection (resazurin fluorescence assay, HEK-293T cells) (hSARM1 FP255-6RR (human)): 50%
 | NC(=O)c1ccc[n+]([C@@H]2O[C@H](COP(=O)([O-])O)[C@@H](O)[C@H]2O)c1 [NMN, nicotinamide mononucleotide, reference compound] |  |  |  | effect on hSARM1 NADase activity (hSARM1 [5]; 0.2 mM NMN): no visible effect; increase in hSARM1 NADase activity (hSARM1 [5]; 1 mM NMN): 30%
 | O=NN1CCCCC1 [TK138] | competitive pattern | high level of protection; also recorded: highest level of protection | only very mildly toxic; also recorded: significant toxic effect | EC50 (zfSARM1; 50 μM NAD+, ADPR production by HPLC, read-out: EC50, activation of zfSARM1 NADase): 2.7 µM
